{"source": "patent US8486921B2", "about": "“Synthesis of tetracyclines and analogues thereof” (President and Fellows of Harvard College, priority 2006, dated 2013)", "test_system": "Gram-positive strains", "assay": "Whole-cell antibacterial MIC assay (NCCLS serial dilution), Gram-positive strains", "assay_type": "cell-based", "conditions": "each of the Gram-positive strains examined, including strains with resistance to tetracycline, methicillin, and vancomycin", "protocol": "The efficiencies of the synthetic sequences have allowed for the preparation of sufficient quantities of each tetracycline analog for antibacterial testing using standard serial-dilution techniques (5-20 mg amounts). Minimum inhibitory concentrations (MICs) are reported for each analog in whole-cell antimicrobial assays using five Gram-positive and five Gram-negative organisms (FIG. 18).\nWhole-cell antibacterial activity was determined according to methods recommended by the NCCLS-(National Committee for Clinical Laboratory Standards. 2002. Methods for dilution antimicrobial susceptibility tests for bacteria that grow aerobically: approved standard-fifth edition. NCCLS document M100-S12. National Committee for Clinical Laboratory Standards. Wayne, Pa.; incorporated herein by reference). Test compounds were dissolved in dimethyl sulfoxide (DMSO) and the resulting solutions were diluted in water (1:10) to produce stock solutions with a final concentration of 256 μg tetracycline analog per mL. In a 96-well microtiter plate, 50-μL aliquots of stock solutions were diluted serially into cation-adjusted Mueller-Hinton broth (MHB; Becton-Dickinson, Cockeysville, Md.). Test organisms (50 μL aliquots of solutions […]) were then added to the appropriate wells of the microtiter plate. […] The MIC was the lowest concentration of compound determined to inhibit visible growth. […]"}
{"smiles": "CN(C)[C@@H]1C(O)=C(C(N)=O)C(=O)[C@@]2(O)C(O)=C3C(=O)c4c(cc5ccccc5c4O)C[C@H]3C[C@@H]12", "note": "[compound 6]", "values": [{"measurement": "antibacterial activity (MIC) compared with tetracycline", "result": "activity equal to or greater than tetracycline"}]}
